The source of these data is patent publication US20170184604A1, “DD1ALPHA RECEPTOR AND USES THEREOF IN IMMUNE DISORDERS” (THE GENERAL HOSPITAL CORPORATION, priority 2014, published 2017).

The subject of one assay is MCF7 cells. The assay is described as follows: p53-mediated induction of checkpoint proteins (western blot). The class given is cell-based, human. The following applies: 10 μM. As for the experimental part:
(§1) FIGS. 6A-6E show physical association of DD1α with PD1 but not with PD-L1. (FIG. 6A) Interaction of DD1α with PD1 or DD1α. […] The bound Ig fusion proteins were detected with anti-Ig-APC. Empty vector (pcDNA3.1)-transfected cells stained with Ig proteins are shown as a negative control (gray filled) and other staining is shown as black open. (FIG. 6B) DD1α binds to both DD1α and PD1 on CD4+ T cells. Purified CD4+ T cells from Wt and DD1α−/− mice were assayed for binding to Ig fused DD1α or PD1 proteins. Cells were incubated with DD1α-Ig (open), PD1-Ig (open), or control Ig proteins (gray filled) and the bound Ig fusion proteins were detected by anti-Ig-APC. […] The bound Ig fusion proteins were detected by anti-Ig-APC. Binding amounts were determined by percentage of APC positive cells compared to control Ig protein-bound cells. (FIG. 6C) Ig-pulldown experiments show DD1α interaction with both DD1α and PD1. […] The bead bound proteins were eluted and determined by western blot analysis using anti-HA antibody (asterisks). […] The bead bound proteins were eluted and detected by western blot analysis with anti-DD1α or anti-PD1 antibody (asterisk). […] The levels of indicated proteins were analyzed by western blot analysis. Total RNAs from control siRNA or p53 siRNA transfected MCF7 cells were assessed for mRNA levels of PD1 or PD-L1 by real-time quantitative PCR. […]
For orientation: Immunoblotting shows a protein as a band on a membrane.

The target in assay [1] is mouse DD1α on mouse cells (CD4+ and CD8+ T cells, thymocytes, bone marrow-derived macrophages) (mouse) (UniProt Q9D659). Briefly: cell-based or functional assay.
In assay [2] the test system is CD4+ or CD8+ T cells from wt- or DD1α−/− mice. The assay is described as follows: Mouse T cell activation assay (CFSE proliferation). The class given is cell-based. As to the method: Enriched CD4+ and CD8+ T cells from Wt and DD1α−/− mice were stimulated, with 2.5 μg/ml anti-CD3 alone or together with DD1α-Ig or control Ig. The proliferations of CD4+ T cells (top graphs) or CD8+ T cells (bottom graphs) were determined by the percentage of CFSE-diluted CD8+ cells on day 3. The levels of cytokines (IFN-γ and TNF-α) in culture supernatant on day 2 were analyzed by ELISA. The results represent mean±SD from three experiments.
The inventors have discovered that DD1αregulates T cell activation through DD1α on T cells. […] The proliferations of CD4+ T cells were determined by percentage of CFSE-diluted CD4+ cells on day 3 and IFN-γ and levels in culture supernatants on day 2 were analyzed by ELISA. […] The proliferations of CD8+ T cells were determined by percentage of CD8+ T cells containing diluted CFSE signal on day 3. The cytokine levels in culture supernatant were analyzed by ELISA on day 2.
The amount of Ig protein was kept constant at 10 μg/ml by the addition of control Ig protein. Human CD4+ or CD8+ T cells were purified from freshly isolated PBMCs using CD4+ T Cell Isolation Kit II, human or CD8+ T Cell Isolation Kit, human (Miltenyi Biotec). Mouse CD4+ and CD8+ T cells were purified from splenocytes freshly isolated from mice using CD4+ T Cell Isolation Kit II, mouse or CD8a+ T Cell Isolation Kit II, mouse (Miltenyi Biotec). Purity was confirmed to be over 90% by flow cytometry. The T cells were labeled with 1 μM CFSE, quenched by cold FBS and incubated in the anti-CD3 & Ig proteins-coated plates. On day 2 after stimulation, supernatant was collected and cytokines were assayed by ELISA. On day 3, cells were stained with anti-CD4-APC (OKT4, eBioscience for human CD4+ T cells; RM4-5, eBioscience for mouse CD4+ T cells) or anti-CD8-APC (SK1, eBioscience for human CD8+ T cells; 53-6.7, eBioscience for mouse CD8+ T cells) and then analyzed for CFSE dilution by flow cytometry.

In the next assay the test system is DD1α. The assay is described as follows: Ig fusion protein-pull down assay. The class given is binding, human. As to the method:
FIGS. 6A-6E show physical association of DD1α with PD1 but not with PD-L1. (FIG. 6A) Interaction of DD1α with PD1 or DD1α. […] The bound Ig fusion proteins were detected with anti-Ig-APC. Empty vector (pcDNA3.1)-transfected cells stained with Ig proteins are shown as a negative control (gray filled) and other staining is shown as black open. (FIG. 6B) DD1α binds to both DD1α and PD1 on CD4+ T cells. Purified CD4+ T cells from Wt and DD1α−/− mice were assayed for binding to Ig fused DD1α or PD1 proteins. Cells were incubated with DD1α-Ig (open), PD1-Ig (open), or control Ig proteins (gray filled) and the bound Ig fusion proteins were detected by anti-Ig-APC. […] The bound Ig fusion proteins were detected by anti-Ig-APC. Binding amounts were determined by percentage of APC positive cells compared to control Ig protein-bound cells. (FIG. 6C) Ig-pulldown experiments show DD1α interaction with both DD1α and PD1. […] The bead bound proteins were eluted and determined by western blot analysis using anti-HA antibody (asterisks). (FIG. 6D) Ig fusion proteins (control Ig, DD1α-Ig, or PD1-Ig) were incubated with lysates from Nutlin-3-treated MCF7 cells and pulled down using protein A/G agarose. The bead bound proteins were eluted and detected by western blot analysis with anti-DD1α or anti-PD1 antibody (asterisk). (FIG. 6E) p53-mediated induction of PD1 and PD-L1. MCF7 cells were treated by Nutlin-3 (10 μM) for 1 to 3 days. MCF7 cells were transfected with control siRNA or p53 siRNA for 24 hours and treated with CPT (500 nM) or DMSO (control) for 1 and 2 days. The levels of indicated proteins were analyzed by western blot analysis. Total RNAs from control siRNA or p53 siRNA transfected MCF7 cells were assessed for mRNA levels of PD1 or PD-L1 by real-time quantitative PCR. PD1 or PD-L1 mRNA levels were normalized to 36B4 expression and shown as mean±SD (n=3). Protein levels of PD1 and PD-L1 were examined in EJ-p53tet cells in the absence or presence of tetracycline (tet), ZR75-1 cells treated with CPT (500 nM), or A375 cells exposed to 13 Gy ionizing irradiation for the indicated times.
Ig fusion proteins (control Ig, DD1α-Ig, or PD1-Ig) were incubated with lysates from Nutlin-3-treated MCF7 cells and pulled down using proten A/G agarose. The bead bound proteins were eluted and detected by western blot analysis with anti-DD1α or anti-PD1 antibody.
Based on the results that both PD-1 and DD1α receptors on T cells contribute to the co-inhibitory roles for DD1α(FIG. 5), it was tested whether DD1α could physically and functionally associate with PD-1 receptor. […] To confirm the specificity of this interaction, the inventors carried out Ig fusion protein-pull down assays using lysates from PD-1, DD1α, or TIM3-transfected 293T cells. […]

In assay [3] the test system is wt- or DD1α−/− mouse CD4+ T cells. The assay is described as follows: Ig fusion protein binding to CD4+ T cells from Wt and DD1α−/− mice. As for the experimental part:
as §1

Assay [4] deals with Jurkat cells expressing DD1α receptor. Briefly: Ig fusion protein binding to Jurkat cells. Conditions: several concentrations; anti-Ig-APC detection. As for the experimental part:
Jurkat cells overexpressing DD1alpha (transfected with DD1alpha cDNA) or control Jurkat cells were assayed for binding to Ig-fused DD1α or PD-1 proteins. Cells were incubated with several different concentrations of DD1α-Ig (left panels) or PD1-Ig (right panels), and the bound Ig fusion proteins were detected by anti-Ig-APC. Binding amounts were determined by percentage of APC positive cells.

Assay [5] addresses T1, DD1α-Ig fusion protein (the extracellular region of DD1α fused with the immunoglobulin G Fc segment) (human, UniProt Q9H7M9 33-194).
T1 construct: also called DD1α-Fc fusion soluble protein; Fc-tagged soluble DD1α protein; not shown: mouse IgG-Fc region of the pCMV6-AC-FC vector (OriGene)
The assay is described as follows: DD1α-Ig-coated beads on transfected 293T cells. The source says: Scale bar, 50 μm. […] Scale bar, 100 μm. […] Scale bar, 50 μm.

In the next assay the target is T2, His-DD1α (33-194) (human, UniProt Q9H7M9 33-194).
T2 construct: not shown: His tag of the pRSET vector (Invitrogen)
Briefly: GST pull-down, anti-His immunoblot.

Sequence of mouse DD1α on mouse cells (CD4+ and CD8+ T cells, thymocytes, bone marrow-derived macrophages) (mouse) (Q9D659 33-308): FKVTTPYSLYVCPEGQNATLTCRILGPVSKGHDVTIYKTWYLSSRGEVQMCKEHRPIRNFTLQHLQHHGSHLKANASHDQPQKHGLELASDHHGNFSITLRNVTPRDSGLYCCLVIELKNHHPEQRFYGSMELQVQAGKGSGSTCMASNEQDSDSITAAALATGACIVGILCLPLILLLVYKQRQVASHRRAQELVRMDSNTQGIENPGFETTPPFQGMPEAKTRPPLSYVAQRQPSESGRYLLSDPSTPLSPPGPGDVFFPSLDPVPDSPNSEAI

Regarding `COc1ccc(C2=N[C@@H](c3ccc(Cl)cc3)[C@@H](c3ccc(Cl)cc3)N2C(=O)N2CCNC(=O)C2)c(OC(C)C)c1` [Nutlin-3], in the assay on MCF7 cells, the “CTLA-4 and ICOSL protein levels” value is listed as “did not respond”; the “PD-1 and PD-L1 protein levels” value is given as “induced”.
As for “DD1α-Ig as used on mouse T cells (Fc fusion)”, in assay [1], the inhibition of anti-CD3-induced proliferation of DD1α-/- mouse CD4+ or CD8+ T cells came out at 30% and the inhibition of anti-CD3-induced proliferation of Wt mouse CD4+ or CD8+ T cells worked out at 50%.
As for “PD-1-Ig: Recombinant human or mouse PD-1-Ig fusion protein from R&D Systems [reference compound]”, the “reversal of PD-1-Ig-mediated inhibition of CD4+ T cell stimulation” value in assay [2] (DD1α−/− CD4+ T cells) is on record as ~30%. The “inhibition of anti-CD3-induced CD4+ T cell proliferation” value in assay [2] (mouse CD4+ T cells, wt) was ~45%. Moreover, the “pull down of DD1α” value in the assay with DD1α (lysates from transfected 293T cells) is “pulled down”. Also, in the assay on DD1α (lysates of Nutlin-3-treated MCF7 cells), the “pull down of endogenous DD1α receptor” value was “detected”. Also, the “binding to the surface of DD1α−/− CD4+ T cells compared with wt-CD4+ T cells” value in assay [3] is on record as “significantly lower”. Besides, the “binding to Jurkat cells expressing DD1α receptor” value in assay [4] is reported as “bind”.
With “PD-1-Ig as used on mouse T cells (Fc fusion)”, in assay [1], the inhibition of anti-CD3-induced proliferation of mouse CD4+ T cells turned out to be 45% and the reversal of PD-1-Ig-mediated inhibition in DD1α-/- CD4+ T cells was 30%.

B1: DD1α-ΔIgV (immunoglobulin V domain (aa 45-168)-deleted mutant) expressed on transfected cells (receptor)
chain: FKVATPYSLYVCQTGKDAPSNCVVYPSSSQDSENITAAALATGACIVGILCLPLILLLVYKQRQAASNRRAQELVRMDSNIQGIENPGFEASPPAQGIPEAKVRHPLSYVAQRQPSESGRHLLSEPSTPLSPPGPGDVFFPSLDPVPDSPNFEVI
notes: signal peptide 1-32 left out; also called mutant lacking the IgV domain; IgV-deleted DD1α
With B1, in assay [5], the binding result is “no binding”.

B2: GST-DD1α-ΔIgV (33-311, ΔIgV) (other)
chain: FKVATPYSLYVCQTGKDAPSNCVVYPSSSQDSENITAAALATGACIVGILCLPLILLLVYKQRQAASNRRAQELVRMDSNIQGIENPGFEASPPAQGIPEAKVRHPLSYVAQRQPSESGRHLLSEPSTPLSPPGPGDVFFPSLDPVPDSPNFEVI
notes: also called IgV-deleted mutant; IgV-deleted DD1α (GST fusion); not shown: N-terminal GST tag and linker of pGEX-6P-1
For the molecule B2, the binding result in the assay with His-DD1α (33-194) is on record as “no binding”.

B3: GST-DD1α (215-311), the cytoplasmic region (other)
chain: VYKQRQAASNRRAQELVRMDSNIQGIENPGFEASPPAQGIPEAKVRHPLSYVAQRQPSESGRHLLSEPSTPLSPPGPGDVFFPSLDPVPDSPNFEVI
notes: also called the cytoplasmic region of DD1α (GST fusion); not shown: glutathione S-transferase tag of the pGEX-6P-1 vector
As to B3, the binding result with His-DD1α (33-194) is “no binding”.
